Counter-ions that a name gives are not always drawn.
target: T1, CRBN (Homo sapiens, UniProt Q96SW2); assay: Competition Assay: MAPPIT-like, competition with trimethoprim-lenalidomide hybrid ligand for binding to CRBN in HEK293T cells; assay type: cell-based; conditions: HEK293T cells, 300 nM trimethoprim-lenalidomide hybrid ligand, luciferase 24 hours after compound treatment; read-out: Competition IC50
T1 construct: expressed in transfected cells; host or cells: HEK293T
From the text: A bait protein (protein A) is expressed as a fusion protein in which it is genetically fused to an engineered intracellular receptor domain of the leptin receptor, which is itself fused to the extracellular domain of the erythropoietin (Epo) receptor. Binding of Epo ligand to the EpoR component results in activation of receptor-associated intracellular JAK2. However, activated JAK2 cannot activate the leptin receptor to trigger STAT3 binding and its phosphorylation because its tyrosine residues, normally phosphorylated by activated JAK2, have been mutated. Reconstitution of a JAK2 phosphorylatable STAT3 docking site is instead created through interaction of a protein B with protein A, whereby protein B is fused to a cytoplasmic domain of the gp130 receptor (which now harbors appropriate tyrosine resides recognized by the activated JAK2 kinase). Thus, physical interaction of protein A with protein B reconstitutes and Epo triggers JAK2-STAT3 signaling pathway activation. Activation of STAT3 can be monitored by introduction of a STAT3-responsive reporter gene, including a luciferase-encoding gene or a gene encoding a fluorescent marker such as GFP or some other type of fluorescent protein (EGF etc.). In this manner, the MAPPIT assay provides a versatile assay to assess such recombinant protein-protein interactions, or compound- or hybrid ligand-induced protein-protein interactions, in intact cells.
Formation of the complex results in activation of a STAT-responsive luciferase reporter gene. That signal is set to 100% luciferase activity. In a separate sample set up, cells are prepared in the same manner but, in addition, co-incubated with a test compound whose interaction with CRBN is investigated. […] Increasing concentrations of test compound are assessed to determine CRBN binding efficiency as determined in this type of ligand competition experiment in living cells. Specificity of signal inhibition is assessed by a parallel experimental set up in which test compound effect is assessed for inhibition of signal generated by a control gp130 fusion protein (CTRL) that directly binds to the DHFR-fusion protein in the absence of hybrid ligand (i.e. a direct interaction of the proteins).
In more detail, HEK293T cells are cultured in Dulbecco's modified Eagle's medium supplemented with 10% fetal calf serum, incubated at 37° C., 8% CO2. […] Data points represent the average luciferase activity of triplicate samples derived from cells treated with leptin+test compound for the REM2 control (CTRL) or cells treated with leptin+hybrid ligand+test compound (CRBN) relative to leptin (CTRL) or leptin+hybrid ligand (CRBN) only treated samples (the signals obtained in absence of added test compound for both cases is set at 100% of luciferase activity on y-axis). Error bars represent standard deviations. Curves are fit using 4-parameter nonlinear regression in […] PRISM software

| Structure (SMILES) | IC50 [µM] |
| --- | --- |
| C#CCOCCOCCOCCNc1nc(Nc2ccc3c(c2)CN(C2CCC(=O)NC2=O)C3=O)c2ccsc2n1 (centres unmarked) [Compound 5.01] | 0.435 |
| CC(C)(C)OC(=O)NCCOCCOCCOCCn1cc(CNc2nc(Nc3ccc4c(c3)CN(C3CCC(=O)NC3=O)C4=O)c3ccsc3n2)nn1 (centres unmarked) [Compound 5.02] | 0.376 |
| C#CCOCCOCCOCCNC(=O)COc1ccc2nc(C(=O)Nc3ccc4c(c3)C(=O)N(C3CCC(=O)NC3=O)C4)ccc2c1 (centres unmarked) [Compound 5.03] | 0.873 |
| C#CCOCCOCCOCCOCC(=O)Nc1cc(Br)c2c(c1OC)C(=O)N(C1CCC(=O)NC1=O)C2 (centres unmarked) [Compound 5.04] | 0.189 |
| C#CCOCCOCCOCCOCC(=O)Nc1ccc(-c2cccc3c2C(=O)N(C2CCC(=O)NC2=O)C3)cc1 (centres unmarked) [Compound 5.05] | 0.194 |
| C#CCOCCOCCOCCNC(=O)c1ccc(CNC(=O)CNc2ccc3c(c2)C(=O)N(C2CCC(=O)NC2=O)C3)cc1 (centres unmarked) [Compound 5.08] | 5.25 |
| CC/C(=C(\c1ccccc1)c1ccc(OCCN(C)CC(=O)NCCNC(=O)COc2cccc3c2CN(C2CCC(=O)NC2=O)C3=O)cc1)c1ccccc1 (centres unmarked) [Compound 5.56] | 5.8 |
| Cc1sc2c(c1C)C(c1ccc(Cl)cc1)=N[C@@H](CC(=O)NCCOCCOCCOCCOCCNC(=O)COc1cccc3c1CN(C1CCC(=O)NC1=O)C3=O)c1nnc(C)n1-2 (some centres unmarked) [Compound 5.57] | 0.109 |
| Cc1sc2c(c1C)C(c1ccc(Cl)cc1)=N[C@@H](CC(=O)NCCOCCOCCOCCNC(=O)COc1cccc3c1CN(C1CCC(=O)NC1=O)C3=O)c1nnc(C)n1-2 (some centres unmarked) [Compound 5.58] | 0.0998 |
| Cc1sc2c(c1C)C(c1ccc(Cl)cc1)=N[C@@H](CC(=O)NCCOCCOCCNC(=O)COc1cccc3c1CN(C1CCC(=O)NC1=O)C3=O)c1nnc(C)n1-2 (some centres unmarked) [Compound 5.59] | 0.068 |
| Cc1sc2c(c1C)C(c1ccc(Cl)cc1)=N[C@@H](CC(=O)NCCNC(=O)COc1cccc3c1CN(C1CCC(=O)NC1=O)C3=O)c1nnc(C)n1-2 (some centres unmarked) [Compound 5.60] | 0.116 |

same assay, conditions: protocol and reagents of Example 1; read-out: IC50 Competition

| Structure (SMILES) | IC50 [µM] |
| --- | --- |
| O=C1N=c2ccc(NC(=O)NCc3ccccc3)cc2=N1 [1-benzyl-3-(2-oxobenzimidazol-5-yl)urea] | 23.8 |
| O=C(O)CNc1cccc2c1CN(C1CCC(=O)NC1=O)C2=O (centres unmarked) [2-[[2-(2,6-dioxo-3-piperidyl)-1-oxo-isoindolin-4-yl]amino]acetic acid] | 13.8 |
| O=C1CCC(N2C(=O)c3ccccc3C2OCc2ccccc2)C(=O)N1 (centres unmarked) [3-(1-benzyloxy-3-oxo-isoindolin-2-yl)piperidine-2,6-dione] | 58.3 |
| O=C1CCC(N2Cc3ccc(Nc4ncnc5ccccc45)cc3C2=O)C(=O)N1 (centres unmarked) [C80382 acetic acid salt, acetic acid;3-[1-oxo-6-(quinazolin-4-ylamino)isoindolin-2-yl]piperidine-2,6-dione] | 0.0334 |
| COc1ccc(C2c3ccccc3C(=O)N2C2CCC(=O)NC2=O)cc1 (centres unmarked) [Compound C11892, 3-[1-(4-methoxyphenyl)-3-oxo-isoindolin-2-yl]piperidine-2,6-dione] | 8.16 |
| O=C1CCC(N2Cc3ccc(NCC(=O)N4CCCCC4)cc3C2=O)C(=O)N1 (centres unmarked) [Compound C12581] | 10 |
| CC1CCN(C(=O)CNc2ccc3c(c2)C(=O)N(C2CCC(=O)NC2=O)C3)CC1 (centres unmarked) [Compound C12582, 3-[6-[[2-(4-methyl-1-piperidyl)-2-oxo-ethyl]amino]-1-oxo-isoindolin-2-yl]piperidine-2,6-dione] | 37400 |
| CC1CCCN(C(=O)CNc2ccc3c(c2)C(=O)N(C2CCC(=O)NC2=O)C3)C1 (centres unmarked) [Compound C12583, 3-[6-[[2-(3-methyl-1-piperidyl)-2-oxo-ethyl]amino]-1-oxo-isoindolin-2-yl]piperidine-2,6-dione] | 0.0492 |
| CC1CCCCN1C(=O)CNc1ccc2c(c1)C(=O)N(C1CCC(=O)NC1=O)C2 (centres unmarked) [Compound C12584, 3-[6-[[2-(2-methyl-1-piperidyl)-2-oxo-ethyl]amino]-1-oxo-isoindolin-2-yl]piperidine-2,6-dione] | 7.91e-05 |
| CC1CN(C(=O)CNc2ccc3c(c2)C(=O)N(C2CCC(=O)NC2=O)C3)CCO1 (centres unmarked) [Compound C12586, 3-[6-[[2-(2-methylmorpholin-4-yl)-2-oxo-ethyl]amino]-1-oxo-isoindolin-2-yl]piperidine-2,6-dione] | 0.383 |
| O=C1CCC(N2Cc3ccc(NCC(=O)N4CC5CC4CO5)cc3C2=O)C(=O)N1 (centres unmarked) [Compound C12589] | 10.3 |
| CC1CN(C)CCN1C(=O)CNc1ccc2c(c1)C(=O)N(C1CCC(=O)NC1=O)C2 (centres unmarked) [Compound C12595, 3-[6-[[2-(2,4-dimethylpiperazin-1-yl)-2-oxo-ethyl]amino]-1-oxo-isoindolin-2-yl]piperidine-2,6-dione] | 0.208 |
| CN1CCN(C(=O)CNc2ccc3c(c2)C(=O)N(C2CCC(=O)NC2=O)C3)CC1=O (centres unmarked) [Compound C12597, 3-[6-[[2-(4-methyl-3-oxo-piperazin-1-yl)-2-oxo-ethyl]amino]-1-oxo-isoindolin-2-yl]piperidine-2,6-dione] | 5.5 |
| CC1CN(C(=O)CNc2ccc3c(c2)C(=O)N(C2CCC(=O)NC2=O)C3)CC(=O)N1 (centres unmarked) [Compound C12598, 3-[6-[[2-(3-methyl-5-oxo-piperazin-1-yl)-2-oxo-ethyl]amino]-1-oxo-isoindolin-2-yl]piperidine-2,6-dione] | 4.88 |
| CC1CC(NC(=O)CNc2ccc3c(c2)C(=O)N(C2CCC(=O)NC2=O)C3)CCO1 (centres unmarked) [Compound C12695, 2-[[2-(2,6-dioxo-3-piperidyl)-3-oxo-isoindolin-5-yl]amino]-N-(2-methyltetrahydropyran-4-yl)acetamide] | 58 |
| O=C1Cc2ccccc2C(=O)N1 [Compound C15352, 4H-isoquinoline-1,3-dione] | 10.3 |
| O=C1c2ccccc2CC1n1ccc(=O)[nH]c1=O (centres unmarked) [Compound C16899, 1-(1-oxoindan-2-yl)pyrimidine-2,4-dione] | 10.4 |
| O=C1CCC(CN2C(=O)c3ccccc3C2=O)C(=O)N1 (centres unmarked) [Compound C23258, 2-[(2,6-dioxo-3-piperidyl)methyl]isoindoline-1,3-dione] | 14500 |
| O=C1CCC(N2C(=O)C3CCCCC3C2=O)C(=O)N1 (centres unmarked) [Compound C24191, 2-(2,6-dioxo-3-piperidyl)-3a,4,5,6,7,7a-hexahydroisoindole-1,3-dione] | 17.7 |
| Cc1cccc2c1C(=O)N(C1CCC(=O)NC1=O)C2 (centres unmarked) [Compound C28661, 3-(7-methyl-1-oxo-isoindolin-2-yl)piperidine-2,6-dione] | 0.654 |
| COc1cccc2c1C(=O)N(C1CCC(=O)NC1=O)C2 (centres unmarked) [Compound C29137, 3-(7-methoxy-1-oxo-isoindolin-2-yl)piperidine-2,6-dione] | 0.304 |
| CC(=O)Nc1ccc2c(c1)C(=O)N(C1CCC(=O)NC1=O)C2 (centres unmarked) [Compound C29408, N-[2-(2,6-dioxo-3-piperidyl)-3-oxo-isoindolin-5-yl]acetamide] | 4.92 |
| CC(=O)Nc1cccc2c1C(=O)N(C1CCC(=O)NC1=O)C2 (centres unmarked) [Compound C29457, N-[2-(2,6-dioxo-3-piperidyl)-3-oxo-isoindolin-4-yl]acetamide] | 10.4 |
| NC(=O)Nc1cccc2c1CN(C1CCC(=O)NC1=O)C2=O (centres unmarked) [Compound C29490, [2-(2,6-dioxo-3-piperidyl)-1-oxo-isoindolin-4-yl]urea] | 8.86 |
| O=C1c2c(F)c(F)c(F)c(F)c2C(=O)N1c1ccc(F)cc1F [Compound C34491, 2-(2,4-difluorophenyl)-4,5,6,7-tetrafluoro-isoindoline-1,3-dione] | 16.1 |
| Nc1cccc2c(=O)n(C3CCC(=O)NC3=O)nnc12 (centres unmarked) [Compound C35833, 3-(8-amino-4-oxo-1,2,3-benzotriazin-3-yl)piperidine-2,6-dione] | 0.684 |
| O=C1CCc2cc(C(=O)N3CCc4cccnc43)cnc2N1 [Compound C36128, 6-(2,3-dihydropyrrolo[2,3-b]pyridine-1-carbonyl)-3,4-dihydro-1H-1,8-naphthyridin-2-obe] | 20.3 |
| NC(=O)c1ccc2c(c1)C(=O)N(C1CCC(=O)NC1=O)C2 (centres unmarked) [Compound C39772, 2-(2,6-dioxo-3-piperidyl)-3-oxo-isoindoline-5-carboxamide] | 13.8 |
| O=C1CCC(Nc2cnc3ccccc3n2)C(=O)N1 (centres unmarked) [Compound C44292, 3-(quinoxalin-2-ylamino)piperidine-2,6-dione] | 8.32 |
| O=C1CCC(N2Cc3ccc(C(F)(F)F)cc3C2=O)C(=O)N1 (centres unmarked) [Compound C45748, 3-[1-oxo-6-(trifluoromethyl)isoindolin-2-yl]piperidine-2,6-dione] | 0.953 |
